Where “and” joins values, the source holds several entries; their conditions need not be identical. Identical values can stand only once. Like-named read-outs stand apart in the source and are kept apart here.
Key:
[1] = Mouse pharmacokinetics, blood and brain levels after IP dose; type: in vivo; conditions: for Brain level: LLOQ = 25 ng/g; for AUC0-t / Cmax / Tmax: blood
Experimental: NEU-4391 was administered intraperitoneally (IP) to two groups of female NMRI mice (Group 1 n = 3; Group 2 n = 6). The compound was prepared in 1% (v/v) DMSO:99% (v/v) 20% (w/v) sulfobutyl ether-beta-cyclodextrin (SBE-β-CD) (Captisol) in water and the dosing volume was 10 mL/kg for a total dose of 10 mg/kg. Food and tap water were available ad libitum. Following IP dosing, Group 1 blood samples were collected from the tail vein into capillary tubes containing K2EDTA at the following time-points: 0.0833, 0.25, 0.5, 1, 2, 4, 6, 8 and 24 h.
In order to obtain simultaneous blood and brain samples, Group 2 mice were placed under terminal anaesthetic (isoflurane) and blood samples (0.3 mL) collected from the retro-orbital sinus into K2EDTA tubes at 0.5 h (n = 3) and 4 h (n = 3) after compound administration. Immediately following blood sample collection, death was confirmed by cervical dislocation and the brain removed. Aliquots of each blood sample were diluted in an equal volume of water. Mouse brain samples were weighed, water was added at a 1/2 (w/v) ratio (brain/water), and then homogenized. Both blood and brain samples were stored -80°C until analysis.
Diluted blood and brain homogenates were processed under standard liquid-liquid extraction procedures using acetonitrile containing an internal standard (Nifedipine) and analyzed by LC-MS/MS. Non-compartmental analysis was performed using the Phoenix pharmacokinetic software version 1.4 (Certara) and Cmax, tmax, AUClast, AUC, and t1/2 were estimated.

[2] = Shake-flask octanol-water Log D7.4; type: physicochemical; conditions: pH 7.4, octanol-water shake-flask
Experimental: Shake-flask octanol-water distribution coefficient at pH 7.4 (Log D7.4). The aqueous solution used is 10 mM sodium phosphate pH 7.4 buffer. The method has been validated for Log D7.4 ranging from -2 to 5.0.

[3] = tested on: S. mansoni adults and somules; test: S. mansoni phenotypic assay, adults and somules (severity score); type: cell-based, Schistosoma mansoni (NMRI isolate); conditions: for activity against S. mansoni adults and/or somules: 10 μM; for Adult severity score (10 μM): adults; for Adult severity score (10 μM) / Somule severity score (10 μM): score 0-4; for Somule severity score (10 μM): somules
Experimental: Maintenance of the Schistosoma mansoni life cycle, preparation of somules (post-infective larvae) and adult worms (≥42-days-old), and co-incubation of these stages with test compounds were as described. An NMRI isolate of S. mansoni was used for all whole-organism screens.
Somules (40 units/well/96w round-bottomed plate) or adults (five paris/well/24w plate) were cultured in the presence of compounds at 10 µM and phenotypic changes observed as a function of time using an Zeiss Axiovert A1 inverted microscope (Table S4). A constrained nomenclature was used to describe the effects of compounds on parasites (changes in shape, motility and density). To generate a partially quantitative output for comparing drug effects, each descriptor was awarded a score of 1 and these were summed to a maximum score of 4 [7-10]: evidence of degeneracy or death was awarded the maximum score of 4. For adults specifically, damage to the tegument (outer surface) was also awarded a score of 4 based on the indication that damage to the patrasite’s surface is lethal in vivo [11]. Assays were performed twice and representative data are shown.

[4] = IP 10 mg/kg single dose, individual mice 001F-003F, 10 mg/kg

## CNS(=O)(=O)c1ccc(N/N=C2\C(=O)Nc3cccc(C=C(C)C)c32)cc1 [NEU-4391, (Z)-N-Methyl-4-(2-(4-(2-methylprop-1-en-1-yl)-2-oxoindolin-3-ylidene)hydrazinyl)benzenesulfonamide]
[1]; 0.5 h after IP 10 mg/kg, individual mice N1-N3
  Brain level: <LLOQ
[1]; 0.5 h after IP 10 mg/kg, individual mice N1-N3, LLOQ = 25 ng/mL, 10 mg/kg
  Blood level: <LLOQ and 43.3 ng/mL
[1]; 4.0 h after IP 10 mg/kg, individual mice N1-N3
  Brain level: <LLOQ
[1]; 4.0 h after IP 10 mg/kg, individual mice N1-N3, LLOQ = 25 ng/mL
  Blood level: <LLOQ
[1]; IP 10 mg/kg, Fig 6A
  Peripheral blood concentrations after 1 h: below the lower limit of quantitation
[1]; IP 10 mg/kg, all time points
  concentration in the brain: below the limit of detection
[1]; [4]
  AUC0-t: 34.5 ng·h/mL and 39.2 ng·h/mL
  Cmax: 45.0 ng/mL and 56.5 ng/mL
  Tmax: 30 min
[1]; female, NMRI, mouse, whole blood, ip, 10 mg/kg, 0.5 h after IP 10 mg/kg, individual mice N1-N3, LLOQ = 25 ng/mL, read-out: Blood level
  concentration at 0.5 h: 50.7 ng/mL
[1]; female, NMRI, mouse, whole blood, ip, 10 mg/kg, 0.5 h after IP 10 mg/kg, read-out: Blood level (mean)
  concentration at 0.5 h: 47 ng/mL
[1]; female, NMRI, mouse, whole blood, ip, 10 mg/kg, IP 10 mg/kg single dose, individual mice 001F-003F, read-out: AUC0-t
  AUC0-t: 39.3 ng·h/mL
[1]; female, NMRI, mouse, whole blood, ip, 10 mg/kg, IP 10 mg/kg single dose, individual mice 001F-003F, read-out: Cmax
  Cmax: 48.9 ng/mL
[1]; female, NMRI, mouse, whole blood, ip, 10 mg/kg, IP 10 mg/kg single dose, individual mice 001F-003F, read-out: tmax
  Tmax: 15 min
[1]; female, NMRI, mouse, whole blood, ip, 10 mg/kg, IP 10 mg/kg, mean of n = 3, read-out: AUC0-t (mean)
  AUC0-t: 37.7 ng·h/mL
[1]; female, NMRI, mouse, whole blood, ip, 10 mg/kg, IP 10 mg/kg, mean of n = 3, read-out: Cmax (mean)
  Cmax: 50.1 ng/mL
[1]; female, NMRI, mouse, whole blood, ip, 10 mg/kg, IP 10 mg/kg, n = 3, read-out: tmax (mean row, range)
  Tmax: 15 to 30 min
[1]; female, NMRI, mouse, whole blood, ip, 10 mg/kg, IP 10 mg/kg, read-out: Cmax
  Cmax: 130 nM

## CNS(=O)(=O)c1ccc(N/N=C2\C(=O)Nc3ccccc32)cc1 [NEU-2124, (Z)-N-Methyl-4-(2-(2-oxoindolin-3-ylidene)hydrazinyl)benzenesulfonamide]
[2]
  logD: 2.8
[3]
  activity against S. mansoni adults and/or somules: moderate and variable activity
[3]; 3h
  Adult severity score (10 μM): 2
[3]; 6h
  Adult severity score (10 μM): 2
[3]; 24h
  Adult severity score (10 μM): 2
  Somule severity score (10 μM): 1
[3]; 48h
  Adult severity score (10 μM): 2
  Somule severity score (10 μM): 0

## CN(C)S(=O)(=O)c1ccc(N/N=C2\C(=O)Nc3ccccc32)cc1 [NEU-2118, (Z)-N,N-Dimethyl-4-(2-(2-oxoindolin-3-ylidene)hydrazinyl)benzenesulfonamide]
[2]
  logD: 3.4
[3]
  activity against S. mansoni adults and/or somules: moderate and variable activity
[3]; 3h
  Adult severity score (10 μM): 3
[3]; 6h
  Adult severity score (10 μM): 3
[3]; 24h
  Adult severity score (10 μM): 3
  Somule severity score (10 μM): 0
[3]; 48h
  Adult severity score (10 μM): 3
  Somule severity score (10 μM): 0
